Patent US8722849B2, “Polypeptides” (Novo Nordisk A/S, priority 2011, dated 2014)
Values after ≈ are worked out from the molar mass of the structure shown. Like-named read-outs stand apart in the source and are kept apart here. Starred links: 1 amine or outer side, 2 acyl side, 3 side chain; linkers in the order of their positions; H or OH if unused. Positions of bridges follow the written chain, without caps; N, C: chain ends. Residues, ends and D or L forms follow the SMILES beside them. Groups on a side chain read outwards from the residue. *: point of attachment. C20 diacid = O=C(O)CCCCCCCCCCCCCCCCCCC(=O)*; C18 diacid = O=C(O)CCCCCCCCCCCCCCCCC(=O)*; γGlu = O=C(O)[C@H](CCC(=O)[*:2])N[*:1]; AEEA = NCCOCCOCC(=O)O

Columns and labels:
[1] = biological target: T1, human amylin receptor (amylin 3(a) receptor: human calcitonin receptor + RAMP-3) (Homo sapiens, UniProt O60896+P30988); assay: Assay (II)a functional CRE-luciferase assay, human amylin receptor; type: cell-based; settings: Table 2; BHK amylin 3(a)-receptor/CRE-luc cells
T1 construct: expressed in transfected cells; host or cells: BHK570
T1 sequence (P30988 25-474): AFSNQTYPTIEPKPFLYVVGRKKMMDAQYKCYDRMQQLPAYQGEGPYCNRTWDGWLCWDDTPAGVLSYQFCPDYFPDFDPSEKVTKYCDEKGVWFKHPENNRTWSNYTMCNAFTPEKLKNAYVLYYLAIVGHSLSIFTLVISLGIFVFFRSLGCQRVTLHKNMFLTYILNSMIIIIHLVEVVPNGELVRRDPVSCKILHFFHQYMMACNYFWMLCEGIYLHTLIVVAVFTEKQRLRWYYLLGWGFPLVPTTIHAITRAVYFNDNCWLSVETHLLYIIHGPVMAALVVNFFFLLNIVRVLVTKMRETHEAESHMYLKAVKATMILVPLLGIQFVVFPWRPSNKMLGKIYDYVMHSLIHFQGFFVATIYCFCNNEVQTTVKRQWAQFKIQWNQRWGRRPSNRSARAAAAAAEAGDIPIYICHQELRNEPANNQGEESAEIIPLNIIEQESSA
T1 sequence (O60896 24-148 partner): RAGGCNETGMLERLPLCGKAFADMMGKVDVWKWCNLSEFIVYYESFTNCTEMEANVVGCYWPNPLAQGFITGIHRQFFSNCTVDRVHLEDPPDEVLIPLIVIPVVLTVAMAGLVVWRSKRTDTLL

[2] = biological target: T2, human calcitonin receptor (Homo sapiens, UniProt P30988); assay: Assay (II)a functional CRE-luciferase assay, human calcitonin receptor; type: cell-based
T2 construct: expressed in transfected cells; host or cells: BHK570
T2 sequence (P30988 25-474): T1 sequence (P30988 25-474)

[3] = Assay (III) ThT fibrillation assay for physical stability; type: physicochemical; settings: ThT fibrillation assay
Outline: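 Freshly prepared formulations, pH-adjusted, with 1 μM ThT; four or eight replicates incubated at 37 °C under 960 rpm orbital shaking. Fluorescence (ex 444/em 485 nm) read every 20 min; […]. Peptide concentration measured by RP-HPLC before and after the run.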

[4] = Assay (IV) determination of solubility; type: physicochemical
Outline: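 Solubility was profiled across pH 3.0–8.0 after 18 hours at room temperature: a ~500 nmol/ml aqueous polypeptide solution was diluted 1:1 into 100 mM glycylglycine or bistrispropane buffers. After centrifugation, HPLC gave the dissolved concentration.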

[5] = Table 7, human calcitonin (CTa) receptor
[6] = bistrispropane buffer, pH 6, pH 6.0, read-out: Solubility pH 6.0
[7] = bistrispropane buffer, pH 6.5, pH 6.5, read-out: Solubility pH 6.5
[8] = bistrispropane buffer, pH 7, pH 7.0, 18 hours at room temperature, Table 3, read-out: Solubility pH 7.0
[9] = bistrispropane buffer, pH 7, pH 7.0, read-out: Solubility pH 7.0
[10] = bistrispropane buffer, pH 7.5, pH 7.5, read-out: Solubility pH 7.5
[11] = bistrispropane buffer, pH 8, pH 8.0, read-out: Solubility pH 8.0
[12] = glycylglycine buffer, pH 3, pH 3.0, read-out: Solubility pH 3.0
[13] = glycylglycine buffer, pH 4, pH 4.0, 18 hours at room temperature, Table 2, read-out: Solubility pH 4.0
[14] = glycylglycine buffer, pH 4, pH 4.0, read-out: Solubility pH 4.0
[15] = glycylglycine buffer, pH 5, pH 5.0, read-out: Solubility pH 5.0

| EC50 [1] | EC50 [2, 5] | ThT pH 4.0 lag time (h) [3] | solubility at 18 h [4, 6] | solubility at 18 h [4, 7] | solubility at 18 h [4, 8] | solubility at 18 h [4, 9] | solubility at 18 h [4, 10] | solubility at 18 h [4, 11] | solubility at 18 h [4, 12] | solubility at 18 h [4, 13] | solubility at 18 h [4, 14] | solubility at 18 h [4, 15] | ThT pH 4.0 lag time [3] | EC50 ([2]; Table 11, read-out: CTa receptor human EC50) | Structure (SMILES) |
| --- | --- | --- | --- | --- | --- | --- | --- | --- | --- | --- | --- | --- | --- | --- | --- |
| 0.108 nM | 0.288 nM | 14 h | > 200 µM | > 200 µM | > 200 µM | > 200 µM | > 200 µM | > 200 µM | > 200 µM | > 200 µM | > 200 µM | > 200 µM | – | – | CC[C@H](C)[C@H](NC(=O)[C@@H]1CCCN1C(=O)CNC(=O)[C@H](Cc1ccccc1)NC(=O)[C@H](CC(N)=O)NC(=O)[C@H](CC(N)=O)NC(=O)[C@H](CO)NC(=O)[C@H](CO)NC(=O)[C@H](Cc1c[nH]cn1)NC(=O)[C@H](Cc1c[nH]cn1)NC(=O)[C@H](CC(C)C)NC(=O)[C@H](Cc1ccccc1)NC(=O)[C@H](CCC(=O)O)NC(=O)[C@H](C)NC(=O)[C@H](CC(C)C)NC(=O)[C@H](CCCNC(=N)N)NC(=O)[C@H](CCC(N)=O)NC(=O)[C@@H](NC(=O)[C@H](C)NC(=O)[C@@H]1CSSC[C@H](NC(=O)[C@H](CCC(=O)O)NC(=O)COCCOCCNC(=O)COCCOCCNC(=O)CC[C@H](NC(=O)CCCCCCCCCCCCCCCCC(=O)O)C(=O)O)C(=O)N[C@@H](CC(N)=O)C(=O)N[C@@H]([C@@H](C)O)C(=O)N[C@@H](C)C(=O)N[C@@H]([C@@H](C)O)C(=O)N1)[C@@H](C)O)C(=O)N[C@@H](CC(C)C)C(=O)N1CCC[C@H]1C(=O)N1CCC[C@H]1C(=O)N[C@H](C(=O)N[C@@H](CC(N)=O)C(=O)N[C@H](C(=O)NCC(=O)N[C@@H](CO)C(=O)N[C@@H](CC(N)=O)C(=O)N[C@H](C(=O)N1CCC[C@H]1C(N)=O)[C@@H](C)O)C(C)C)[C@@H](C)O [Example 82, N-alpha-[2-(2-{2-[2-(2-{2-[(S)-4-Carboxy-4-(17-carboxyheptadecanoylamino)butyrylamino]ethoxy}ethoxy)acetylamino]ethoxy}ethoxy)acetyl]-[Glu1,Glu14,His17,Pro37]-pramlintide] ({C18 diacid-γGlu-AEEA-AEEA}-ECNTATCATQRLAEFLHHSSNNFGPILPPTNVGSNTP-NH2; disulfide 2-7 (inferred); C-terminus assumed) |
| 0.0675 nM | 0.0895 nM | 26 h | > 200 µM | 28 µM (≈ 128 µg/mL) | – | 9 µM (≈ 41.1 µg/mL) | 30 µM (≈ 137 µg/mL) | 95 µM (≈ 434 µg/mL) | > 200 µM | > 200 µM | > 200 µM | > 200 µM | 26 h | – | CC[C@H](C)[C@H](NC(=O)[C@@H]1CCCN1C(=O)CNC(=O)[C@H](Cc1ccccc1)NC(=O)[C@H](CC(N)=O)NC(=O)[C@H](CC(N)=O)NC(=O)[C@H](CO)NC(=O)[C@H](CO)NC(=O)[C@H](Cc1c[nH]cn1)NC(=O)[C@H](Cc1c[nH]cn1)NC(=O)[C@H](CC(C)C)NC(=O)[C@H](Cc1ccccc1)NC(=O)[C@H](CCC(=O)O)NC(=O)[C@H](C)NC(=O)[C@H](CC(C)C)NC(=O)[C@H](CCCNC(=N)N)NC(=O)[C@H](CCC(N)=O)NC(=O)[C@@H](NC(=O)[C@H](C)NC(=O)[C@@H]1CSSC[C@H](NC(=O)[C@H](CCCNC(=N)N)NC(=O)CNC(=O)CC[C@H](NC(=O)CCCCCCCCCCCCCCCCCCC(=O)O)C(=O)O)C(=O)N[C@@H](CC(N)=O)C(=O)N[C@@H]([C@@H](C)O)C(=O)N[C@@H](C)C(=O)N[C@@H]([C@@H](C)O)C(=O)N1)[C@@H](C)O)C(=O)N[C@@H](CC(C)C)C(=O)N1CCC[C@H]1C(=O)N1CCC[C@H]1C(=O)N[C@H](C(=O)N[C@@H](CC(N)=O)C(=O)N[C@H](C(=O)NCC(=O)N[C@@H](CO)C(=O)N[C@@H](Cc1c[nH]cn1)C(=O)N[C@H](C(=O)N[C@@H](Cc1ccc(O)cc1)C(N)=O)[C@@H](C)O)C(C)C)[C@@H](C)O [Example 100, N-alpha-[(S)-4-Carboxy-4-(19-carboxynonadecanoylamino)butyryl]-Gly-[Arg1,Glu14,His17,His35]-pramlintide] ({C20 diacid-γGlu}-GRCNTATCATQRLAEFLHHSSNNFGPILPPTNVGSHTY-NH2; disulfide 3-8 (inferred)) |
| 0.456 nM | – | 3 h | > 200 µM | > 200 µM | > 200 µM | > 200 µM | > 200 µM | > 200 µM | > 200 µM | > 200 µM | > 200 µM | > 200 µM | – | 4.3 nM | CC[C@H](C)[C@H](NC(=O)[C@@H]1CCCN1C(=O)CNC(=O)[C@H](Cc1ccccc1)NC(=O)[C@H](CC(N)=O)NC(=O)[C@H](CC(N)=O)NC(=O)[C@H](CO)NC(=O)[C@H](CO)NC(=O)[C@H](Cc1c[nH]cn1)NC(=O)[C@H](CCCCNC(=O)COCCOCCNC(=O)COCCOCCNC(=O)CC[C@H](NC(=O)CCCCCCCCCCCCCCCCC(=O)O)C(=O)O)NC(=O)[C@H](CC(C)C)NC(=O)[C@H](Cc1ccccc1)NC(=O)[C@H](CCC(=O)O)NC(=O)[C@H](C)NC(=O)[C@H](CC(C)C)NC(=O)[C@H](CCCNC(=N)N)NC(=O)[C@H](CCC(N)=O)NC(=O)[C@@H](NC(=O)[C@H](C)NC(=O)[C@@H]1CSSC[C@H](NC(=O)[C@@H](N)CCCCN)C(=O)N[C@@H](CC(N)=O)C(=O)N[C@@H]([C@@H](C)O)C(=O)N[C@@H](C)C(=O)N[C@@H]([C@@H](C)O)C(=O)N1)[C@@H](C)O)C(=O)N[C@@H](CC(C)C)C(=O)N1CCC[C@H]1C(=O)N1CCC[C@H]1C(=O)N[C@H](C(=O)N[C@@H](CC(N)=O)C(=O)N[C@H](C(=O)NCC(=O)N[C@@H](CO)C(=O)N[C@@H](CC(N)=O)C(=O)N[C@H](C(=O)N[C@@H](Cc1ccc(O)cc1)C(N)=O)[C@@H](C)O)C(C)C)[C@@H](C)O [Example 80, N-epsilon17-[2-(2-{2-[2-(2-{2-[(S)-4-Carboxy-4-(17-carboxyheptadecanoylamino)butyrylamino]ethoxy}ethoxy)acetylamino]ethoxy}ethoxy)acetyl]-[Glu14,Lys17]-pramlintide] (H-KCNTATCATQRLAEFLK([AEEA-AEEA-γGlu-C18 diacid])HSSNNFGPILPPTNVGSNTY-NH2; disulfide 2-7) |
